Test results published in US12383623B2, “Liquid pharmaceutical compositions of polypeptide conjugates and methods of uses thereof” (BEIJING QL BIOPHARMACEUTICAL CO., LTD., priority 2022, dated 2025).

What was measured:
[1] = Body weight loss in C57 lean mice after a single s.c. dose; assay type: in vivo, C57BL/6 mice; details: 30 nmol/kg s.c. once
Description: Method: 10 week old male C57BL/6 mice were injected subcutaneously with protein once on Day1. Body weight was measured daily and five animals were used for each treatment group. Body weight was monitored for each individual animal. % BW loss=100*(BW on Day n-BW on Day 1)/(BW on Day 1). […] The area under the curve for body weight loss (%) from 0 until 8 days (AUC ΔBW 0-8d) was calculated.

db/db mice = assay: Non-fasting glucose in db/db mice after a single s.c. dose; assay type: in vivo
Description: Method: 10 weeks old male db/db mice were injected subcutaneously with GLP-1 polypeptide conjugate once. […] Delta blood glucose is glucose subtracted by baseline level. […] The area under the curve for delta blood glucose from 0 until 192 hours (AUCΔ8G 0-192 h) was calculated.

human serum albumin = human serum albumin (Homo sapiens, UniProt P02768); assay: Human serum albumin binding by surface plasmon resonance (Biacore 8K); details: human serum albumin bound to CM5 chip
human serum albumin, sequence (P02768 25-609): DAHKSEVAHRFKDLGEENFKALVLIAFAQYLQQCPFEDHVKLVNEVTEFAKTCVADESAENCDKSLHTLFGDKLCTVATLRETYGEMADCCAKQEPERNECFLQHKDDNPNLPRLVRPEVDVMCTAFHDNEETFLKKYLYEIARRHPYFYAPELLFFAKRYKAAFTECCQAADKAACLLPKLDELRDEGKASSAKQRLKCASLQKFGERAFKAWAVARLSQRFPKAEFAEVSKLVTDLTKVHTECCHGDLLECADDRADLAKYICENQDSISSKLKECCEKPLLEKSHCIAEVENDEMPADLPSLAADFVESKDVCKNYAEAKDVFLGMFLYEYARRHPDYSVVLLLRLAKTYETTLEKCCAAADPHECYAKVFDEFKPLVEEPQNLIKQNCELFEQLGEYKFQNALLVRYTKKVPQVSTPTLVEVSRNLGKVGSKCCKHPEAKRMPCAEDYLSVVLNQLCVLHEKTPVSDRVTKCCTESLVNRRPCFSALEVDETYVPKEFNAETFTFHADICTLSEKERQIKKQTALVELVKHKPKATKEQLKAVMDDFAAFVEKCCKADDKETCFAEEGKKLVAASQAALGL
Description: Method: Binding of molecules to serum albumin was characterized by surface plasmon resonance in a Biacore 8K instrument. Serum albumin from different species was covalently bound to CM5 sensor chips surface until 4000 RU was reached. The chip was blocked by 1M ethanolamine with flowrate of 10 μL/min for 420 s. Each molecule sample was diluted and injected at a flow rate of 30 μL/min to allow for binding to chip-bound albumin for 120 s and for dissociation for 300 s. Binding buffer without molecule was sent over the chip at the flow rate of 20 seconds to allow spontaneous dissociation of bound molecule for 30 seconds.

GLP-1 receptor = GLP-1 receptor (Homo sapiens, UniProt P43220); details: J. Med. Chem. 2015, 58, 7370-7380; cited from earlier work
GLP-1 receptor, sequence (P43220 24-463, species assumed): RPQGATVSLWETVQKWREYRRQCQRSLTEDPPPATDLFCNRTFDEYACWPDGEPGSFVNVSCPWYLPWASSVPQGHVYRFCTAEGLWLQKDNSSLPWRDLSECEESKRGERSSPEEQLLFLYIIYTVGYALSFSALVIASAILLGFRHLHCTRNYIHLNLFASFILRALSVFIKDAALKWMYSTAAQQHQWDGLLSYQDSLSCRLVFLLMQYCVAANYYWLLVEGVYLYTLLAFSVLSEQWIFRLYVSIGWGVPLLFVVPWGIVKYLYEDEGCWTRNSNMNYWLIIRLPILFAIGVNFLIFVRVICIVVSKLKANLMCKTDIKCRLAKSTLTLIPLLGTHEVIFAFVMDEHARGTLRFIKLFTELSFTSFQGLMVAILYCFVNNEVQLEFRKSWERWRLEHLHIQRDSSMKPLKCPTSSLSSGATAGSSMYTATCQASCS

Semaglutide [reference compound]
AUC ΔBW 0-8 d ([1]; Study 1 (FIG. 1A)): −9.3 day*%
AUC ΔBW 0-8 d ([1]; Study 2 (FIG. 1B)): −13.2 day*%
AUCΔBG 0-192 h (db/db mice; 3 nmol/kg s.c. once): -317.0 mmol·h/L
AUCΔBG 0-192 h (db/db mice; 10 nmol/kg s.c. once): -583.4 mmol·h/L
AUCΔBG 0-192 h (db/db mice; 30 nmol/kg s.c. once): -527.1 mmol·h/L
Rmax (human serum albumin): 55.2 RU
Loss in GLP-1 receptor binding in presence of human serum albumin relative to unconjugated counterpart (GLP-1 receptor): 939 fold
